Entries after “also recorded” stand apart in the source; their conditions may differ.
Columns and labels:
[1] = test system: BACE2 (Tmem27 cleavage) in isolated human pancreatic islets; settings: 200 nM, 72 h, islets from two human donors
Protocol: Freshly isolated human islets from two different donors (male, 51 years, BMI: 27.5 kg/m2; […], BMI: 22.2 kg/m2; circa 3000 islets per donor) were obtained from Dr. D. Bosco (Cell Isolation and Transplantation Center, Department of Surgery, Geneva, Switzerland) and maintained in CMRL-1066 (Invitrogen) at 5.6 mmol/l glucose supplemented with 10% FCS, 100 U/ml penicillin, 100 μg/ml streptomycin and 100 μg/ml gentamycin (Sigma) for 2 days before experiments. The present investigation was approved by the institutional ethics committee. […] Islets were collected by centrifugation and total proteins were extracted using CELYA lysis buffer CLB1 (Cat*9000, Zeptosens) following the manufacturer's protocol.
Total islet proteins (10 μg) were fractionated by NuPAGE 4-12% Bis-TrisGel (Cat*NP0321Box, Invitrogen) and transferred to nitrocellulose using iBlot system (Cat*IB3010-01, Invitrogen).

[2] = test system: Zucker Diabetic Fatty (ZDF) rats; test: Oral glucose tolerance test (oGTT) after chronic treatment of ZDF rats; assay type: in vivo, rat
Protocol: This study was conducted with male ZDF rats [ZDF/gmiCrl fa/fa] and lean rats [ZDF/gmiCrl fa/+] (Charles River Laboratories, Sulzfeld, Germany). The ZDF rats are a commonly used model of human type 2 diabetes characterized by insulin resistance, β-cell defects and hyperglycemia. Onset of diabetes in males is at the age of 8 to 10 weeks when fed a diabetogenic diet. All rats (ZDF and Lean rats) with an age of 6 weeks at the beginning of the experiment are fed a special diet (“PURINA PMI 5008”, ZDF_diet=Ssniff R/M−H) and housed 1 per cage (type 3). Ambient temperature is approximately 21° C. and relative humidity 55-65%. A 12 hours light-dark cycle is maintained in the rooms with all tests being performed during the light phase. Access to food and tap water is ad libitum.
(§1) Body weight and food intake were monitored daily. Blood glucose was measured weekly in all rats. After 3 weeks of treatment an oGTT was performed on 6 overnight fasted rats per groups. At about week 4 and after anesthesia, 2 to 3 ZDF rats per day and per group underwent pancreas surgery and in-situ pancreas perfusion with low/high glucose conditions. 120 eluted fractions per rat were collected for glucose and insulin quantification.
An oGTT was conducted on day 18 of treatment. After on overnight fast of approximately 16 h post treatment, rats were given a glucose load of 2 g/kg by gavage. Blood samples were collected immediately prior to glucose challenge (0 min) and +10, +30, +60 and +120 min after glucose challenge and blood glucose and other plasma parameters were determined.
Blood glucose was measured with a blood glucose monitoring system (Accu-Chek Aviva, Roche Diagnostics GmbH, Rotkreuz, Switzerland). Insulin was measured by ELISA, using the Mercodia Rat Insulin ELISA (Mercodia AB, Uppsala, Sweden).
Data were analyzed using the software SAS/JMP for Windows (version 6.0.0, SAS Institute Inc., Cary, N.C.). Data were expressed as mean±SEM (standard error of the mean). The number of rats was 6 per group. Comparison was made versus Vehicle, using Analysis of Variance ANOVA followed by post hoc Dunnett's test.

[3] = test system: pancreas of ZDF rats; test: Assessment of β-cell function by in situ pancreas perfusion (glucose-stimulated insulin secretion); assay type: in vivo, rat
Protocol: as §1
Rats were anesthetized (Temgesic (0.1 ml/100 g) first, then anesthetic cocktail: Ketamine (77 mg/kg), Xylazine (11 mg/kg), i.p. injection, volume 2 ml/kg). Pancreas was surgically isolated from other connecting organs and from nerves and veins and artery afferences and efferences, keeping access to abdominal aorta and portal vein which are both cannulated. Once surgery was done, rats were placed into a temperature controlled box (37° C.) and pancreata were connected to infusion pumps via abdominal aorta.
The glucose-stimulated insulin secretion (GSIS) was obtained by perfusing pancreata with Krebs-Ringer buffer containing low/high glucose concentration as described into protocol designed in FIG. 7. Basically, pancreata were first perfused with freshly prepared Krebs-Ringer solution (5 ml/min) containing low glucose concentration (2.8 mM) for about 30 minutes, stabilizing basal insulin secretion. Then, the first stimulation with high glucose concentration solution (16.7 mM) was given to sensitize the pancreata, leading to modest phase 1 and phase 2 insulin secretion.
Pancreas elution fractions were collected in 96-well plates (via a catheter introduced into the portal vein) at regular time intervals and immediately cooled down to 4° C. and subsequently stored at −20° C. until analyzed. At least, 120 eluted fractions per rat were collected for measurement of glucose and insulin levels.

C[C@@]1(c2cc(NC(=O)c3ccc(Cl)cn3)ccc2F)CCSC(N)=N1 (single isomer, unassigned) [Example 1]
full-length TMEM27 (immunoblot) [1]: stabilized the full length of TMEM27; also recorded: preservation of full-length TMEM 27
Insulin AUC (0-120 minutes) during oGTT ([2]; 8.5 week old ZDF rats treated 17 days, 0.2, 5, 30 mg/kg p.o.): dose-dependent increase in insulin levels without reaching significance
fasting insulin levels ([2]; 8.5 week old ZDF rats treated 17 days, Example 1 p.o., Liraglutide 0.4 mg/kg s.c.): did not change fasting insulin levels compared to vehicle
insulin levels during oGTT (post glucose challenge) ([2]; 8.5 week old ZDF rats treated 17 days, glucose 2 g/kg, Example 1 0.2, 5, 30 mg/kg p.o., Liraglutide 0.4 mg/kg s.c.): increased insulin levels (at peak and up to 60 minutes post glucose challenge); also recorded: dose-dependent increase in insulin levels secreted during oGTT
fasting blood glucose (FBG) after overnight fasting ([2]; 8.5 week old ZDF rats, Example 1 0.2-5-30 mg/kg p.o., Liraglutide 0.4 mg/kg s.c., 17 days): trend to reduce fasting blood glucose after overnight fasting conditions (FBG) without reaching significance
efficacy in oGTT compared with Liraglutide ([2]; Example 1 30 mg/kg p.o. versus Liraglutide 0.4 mg/kg s.c., chronic treatment): close to that induced by chronic treatment with Liraglutide
post-challenged glucose levels ([2]; ZDF rats after 17 days of oral treatment (summary)): reduced post-challenged glucose levels
improvement of glucose tolerance (blood glucose during oGTT) ([2]; ZDF rats, 30 mg/kg p.o. daily for 17 days, versus vehicle): reached significance at 30′, 60′ and 120′ post glucose challenge
glucose area under the curve (AUC 0-120 minutes) during oGTT ([2]; ZDF rats, 0.2, 5, 30 mg/kg p.o. daily for 17 days, oGTT day 18, versus vehicle): dose-dependently reduced; also recorded: dose dependent reduction of glucose AUC reaching significant values at 30 mg/kg
AUC off-response of insulin secretion (perfused pancreas) ([3]; 30 mg/kg, 3 to 4 weeks of treatment, after high glucose 16.7 mM, versus vehicle): reduced
basal insulin secretion (perfused pancreas) ([3]; 30 mg/kg, 3 to 4 weeks of treatment, low glucose 2.8 mM, versus vehicle): reduced
insulin secretion profile (Phase 1/Phase 2) ([3]; ZDF rats, chronic treatment, in situ pancreas perfusion): normalized the insulin secretion profile (Phase 1/Phase 2)
